Results on three compounds are retold here after US20040034039A1, “Solid preparations” (priority 2000, published 2004).

The data set can be described thus: Contact angle of a water drop on a compression-molded product. The class given is physicochemical. Particulars: purified water drop on 300 mg, 13 mm compression-molded product (1 ton/cm^2), 15 seconds after placing. The procedure: The “water-repellent physiologically active substance” to be used in the present invention is exemplified by a substance difficult to get wet, or having a large contact angle, and the like. A specific example thereof is a physiologically active substance having a contact angle of not less than 40 degrees, preferably not less than 60 degrees, more preferably not less than 80 degrees, as measured by forming a compression-molded product (300 mg) having a diameter of 13 mm with Shimadzu autograph (AG-5000B, manufactured by Shimadzu Corporation) at a load of 1 ton/cm^2, placing one drop of purified water on the surface thereof with a syringe, and determining the contact angles of the water drop at 15 seconds after placing with an automatic contact angle meter (CA-Z, manufactured by Kyowa Interface Science Co., Ltd.), and the like. The contact angle of a representative highly water-repellent substance, magnesium stearate, compound A to be mentioned later: (5-(N-benzyl-N-methylaminomethyl)-1-(2,6-difluorobenzyl)-6-[4-(3-methoxyureido)phenyl]-3-phenylthieno[2,3-d]jpyrimidine-2,4(1H,3H)-dione), and compound B to be mentioned later (3-(N-benzyl-N-methylaminomethyl)-4,7-dihydro-5-isobutyryl-7-(2,6-difluorobenzyl)-2-[4-[(1-hydroxycyclopropyl)carbonylamino]phenyl]-4-oxothieno[2,3-b]pyridine) as measured according to the aforementioned method were about 96 degrees, about 90 degrees and about 88 degrees respectively.
Consider `CONC(=O)Nc1ccc(-c2sc3c(c2CN(C)Cc2ccccc2)c(=O)n(-c2ccccc2)c(=O)n3Cc2c(F)cccc2F)cc1` [compound A, 5-(N-benzyl-N-methylaminomethyl)-1-(2,6-difluorobenzyl)-6-[4-(3-methoxyureido)phenyl]-3-phenylthieno[2,3-d]pyrimidine-2,4(1H,3H)-dione], for which the contact angle result is “about 90 degrees”.

For the compound magnesium stearate [reference compound], the contact angle entry is “about 96 degrees”.

Take `CC(C)C(=O)c1cn(Cc2c(F)cccc2F)c2sc(-c3ccc(NC(=O)C4(O)CC4)cc3)c(CN(C)Cc3ccccc3)c2c1=O` [compound B, 3-(N-benzyl-N-methylaminomethyl)-4,7-dihydro-5-isobutyryl-7-(2,6-difluorobenzyl)-2-[4-[(1-hydroxycyclopropyl)carbonylamino]phenyl]-4-oxothieno[2,3-b]pyridine]: the contact angle result was “about 88 degrees”.
